How the values were obtained:
PACA-2 = test: MTS Cellular Assay, PACA-2; format: cell-based; details: PACA-2, 72 hours
Procedure: (§1) Cells were maintained at 37° C., 5% CO2 in DMEM media supplemented with 1% fetal bovine serum, penicillin/streptomycin and fungizone (Invitrogen). Cells were seeded into 96-well tissue culture plates at 3000 per well and cultured at 37° C. for 18 hours. Test compounds were dissolved and diluted to 300× in DMSO then further diluted 1:40 in DMEM before addition to cells (1:7.5 dilution). Cells were incubated with test compounds for 72 hours followed by incubation with tetrazolium compound (3-(4,5-dimethylthiazol-2-yl)-5-(3-carboxymethoxyphenyl)-2-(4-sulfophenyl)-2H-tetrazolium, inner salt; MTS) and the electron coupling reagent, phenazine methosulfate (PMS) for 4 hours. […] The ability of compounds to inhibit cell growth in this assay is correlated with the reduction of dehydrogenase enzyme activity found in metabolically active cells. The measurement of the absorbance of the formazan was assessed using an ENVISION™ (Perkin Elmer) microplate reader at 492 nm. The calculated IC50 value is the concentration of the test compound that causes a 50% decrease in the absorbance.

PC-3 = test: MTS Cellular Assay, PC-3; format: cell-based; details: Homo sapiens, PC-3, 72 hours
Procedure: as §1

KATO III = test: MTS Cellular Assay, KATO III; format: cell-based; details: Homo sapiens, 72 hours
Procedure: as §1

DLD-1 = test: MTS Cellular Assay, DLD-1; format: cell-based; details: Homo sapiens, DLD-1, 72 hours
Procedure: as §1

EphA8 = target: T1, EphA8 (Homo sapiens, UniProt P29322); test: EphA8 Kinase Activity Assay; format: biochemical; details: read-out: EphA8, % INH, at 30 uM
T1 sequence (P29322 28-1005): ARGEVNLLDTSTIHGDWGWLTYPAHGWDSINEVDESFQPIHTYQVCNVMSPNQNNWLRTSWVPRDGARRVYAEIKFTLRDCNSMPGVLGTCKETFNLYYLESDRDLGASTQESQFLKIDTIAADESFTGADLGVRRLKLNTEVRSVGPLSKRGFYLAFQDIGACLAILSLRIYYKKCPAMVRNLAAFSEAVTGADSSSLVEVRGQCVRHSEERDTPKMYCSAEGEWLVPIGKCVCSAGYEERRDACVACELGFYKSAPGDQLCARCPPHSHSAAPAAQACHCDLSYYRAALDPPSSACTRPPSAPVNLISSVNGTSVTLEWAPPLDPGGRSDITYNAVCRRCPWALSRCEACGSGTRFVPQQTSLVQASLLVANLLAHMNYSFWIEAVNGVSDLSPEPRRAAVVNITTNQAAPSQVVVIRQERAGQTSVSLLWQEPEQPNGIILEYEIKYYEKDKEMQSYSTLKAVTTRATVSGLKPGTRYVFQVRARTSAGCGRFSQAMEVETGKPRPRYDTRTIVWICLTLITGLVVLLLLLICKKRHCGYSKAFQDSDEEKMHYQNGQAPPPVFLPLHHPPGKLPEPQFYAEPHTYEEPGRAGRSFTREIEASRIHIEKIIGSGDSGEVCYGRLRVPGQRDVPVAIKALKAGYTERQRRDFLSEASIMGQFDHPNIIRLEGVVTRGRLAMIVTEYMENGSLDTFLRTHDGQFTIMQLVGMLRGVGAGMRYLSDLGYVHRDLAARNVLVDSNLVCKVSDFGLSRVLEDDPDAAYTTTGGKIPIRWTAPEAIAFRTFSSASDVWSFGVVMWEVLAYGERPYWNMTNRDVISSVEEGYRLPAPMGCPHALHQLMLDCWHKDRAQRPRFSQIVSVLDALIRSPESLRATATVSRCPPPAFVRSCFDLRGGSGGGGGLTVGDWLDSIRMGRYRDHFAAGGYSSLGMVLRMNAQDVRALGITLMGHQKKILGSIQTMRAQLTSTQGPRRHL
Procedure: Nunc Maxisorb plates are coated with streptavidin by overnight incubation with 100 μL per well of 1 μg/ml Streptavidin in DPBS. Prior to the start of the experiment, the plates are washed with TBST (3×200 μL) and blocked for at least 1 hour by adding 150 μL of 5% BSA/TBST. The plates are washed with TBST (3×200 μL/well) and left dry immediately before the capture step.
The test articles and control (Staurosporine) are prepared using the following assay buffer @ 3× desired final concentration (50 mM Tris-HCl, 0.02 mg/ml BSA, 10 mM MgCl2, 0.1 mM Na3VO4, 1 mM EGTA, 12.5 μM ATP, 0.01% NP-40, 1 mM DTT in 10% glycerol/water). In a reaction plate are added rapidly 20 μl test article (or control) and 20 μl EphA8 (0.12 ng/μl final concentration). The plate is incubated for 15 minutes. To the reaction plate is added 20 μl of Pyk-2 (0.75 ng/μl final concentration). The plate is incubated at room temperature for one hour. From the reaction plate, 50 μl is transferred to the streptavidin coated plate. The capture plate is incubated at room temperature for 30 minutes, then washed 6× with TBST. To the capture plate is added 100 μL/well of Cell Signaling anti-phospho tyrosine at a dilution of 1:3000 in 2% BSA/TBST. The plate is incubated for one hour at room temperature then washed 6× with TBST. To the capture plate is added 100 μL/well of Alkaline Phosphatase Tagged Goat anti Mouse Antibody at a dilution of 1:4000 in 2% BSA/TBST. The plate is incubated for one hour at room temperature then washed 6× with TBST. The fluorescent readout is initiated by the addition of 100 μl/well of Attophos reagent (6 mg/10 mL). The reading is done on the Perkin Elmer Envision system.

MDA-MB-231 = test: MTS Cellular Assay, MDA-MB-231; format: cell-based; details: Homo sapiens, MDA-MB-231, 72 hours
Procedure: as §1

NCI-H1299 = test: MTS Cellular Assay, NCI-H1299; format: cell-based; details: Homo sapiens, NCI-H1299, 72 hours
Procedure: as §1

SMILES | inhibition at 10 µM (PACA-2) [%] | inhibition at 10 µM (PC-3) [%] | inhibition at 10 µM (KATO III) [%] | inhibition at 10 µM (DLD-1) [%] | inhibition at 30 µM (EphA8) [%] | inhibition at 10 µM (MDA-MB-231) [%] | inhibition at 10 µM (NCI-H1299) [%]
Nc1nc(N2CCN(CCCc3cccc(F)c3)c3ccccc3C2)c2nc[nH]c2n1 [Compound 39, 6-{1-[3-(3-fluorophenyl)propyl]-1,2,3,5-tetrahydro-4H-1,4-benzodiazepin-4-yl}-9H-purin-2-amine] | > 79 | > 79 | > 79 | > 79 | < 50 | > 79 | > 79
Nc1nc(N2CCN(Cc3ccc(Cl)c(Cl)c3)c3ccccc3C2)c2cn[nH]c2n1 [Compound 43, 4-[1-(3,4-dichlorobenzyl)-1,2,3,5-tetrahydro-4H-1,4-benzodiazepin-4-yl]-1H-pyrazolo[3,4-d]pyrimidin-6-amine] | < 50 | < 50 | < 50 | > 79 | 50 to 79 | < 50 | 50 to 79

Source: US8343961B2, “Substituted heterocyclic compounds” (ArQule, Inc., priority 2009, dated 2013)
